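Each compound was tested at five concentrations against cells in 96-well plates for 48 hours. At the GI50, growth is halved. TGI denotes the concentration required for complete inhibition of growth.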
Columns and labels:
Experiment in all cases: NCI anticancer screen, dose series, 48 h
[1] = test system: SNB-75 CNS
[2] = test system: NCI-H522 lung
[3] = test system: SK-MEL-2 melanoma
[4] = test system: UACC-257 melanoma
[5] = test system: T-47D breast
[6] = test system: SR leukemia
[7] = test system: NCI-H460 lung
[8] = test system: MDA-MB-231 breast
[9] = test system: HL-60(TB) leukemia
[10] = test system: ACHN renal
[11] = test system: MOLT-4 leukemia
[12] = test system: HS 578T breast
[13] = test system: BT-549 breast
[14] = test system: U251 CNS
[15] = test system: KM12 colon
[16] = test system: SF-539 CNS
[17] = test system: MCF7 breast
[18] = test system: CAKI-1 renal
[19] = test system: RPMI-8226 leukemia
[20] = test system: 786-0 renal
[21] = test system: K-562 leukemia
[22] = test system: RXF 393 renal
[23] = test system: UACC-62 melanoma
[24] = test system: A549 NSCLC
[25] = test system: SNB-19 CNS
[26] = test system: CCRF-CEM leukemia
[27] = test system: EKVX NSCLC
[28] = test system: MDA-MB-435
[29] = test system: SW-620 colon
[30] = test system: HCT-116 colon
[31] = test system: TK-10 renal
[32] = test system: MALME-3M melanoma
[33] = test system: SF-268 CNS
[34] = test system: LOX IMVI melanoma
[35] = test system: OVCAR-4 ovarian
[36] = test system: NCI-H23 lung
[37] = test system: COLO 205 colon
[38] = test system: PC-3 prostate
[39] = test system: SK-OV-3 ovarian
[40] = test system: SK-MEL-28 melanoma
[41] = test system: HCC-2998 colon
[42] = test system: M14 melanoma
[43] = test system: SK-MEL-5 melanoma
[44] = test system: OVCAR-8 ovarian
[45] = test system: OVCAR-5 ovarian
[46] = test system: HCT-15 colon
[47] = test system: OVCAR-3 ovarian
[48] = test system: HOP-62 NSCLC
[49] = test system: SF-295 CNS
[50] = test system: SN12C renal
[51] = test system: UO-31 renal
[52] = test system: NCI/ADR-RES ovarian
[53] = test system: DU-145 prostate
[54] = test system: HT29 colon
[55] = test system: IGROV1 ovarian
[56] = test system: NCI-H226 lung
[57] = test system: A498 renal
[58] = test system: HOP-92 NSCLC
[59] = test system: MDA-N

## CCC(=O)c1c(C(F)(F)F)n([O-])c2cc(F)c(F)cc2[n+]1=O
[1]
  GI50: 2580 nM
  TGI: 4440 nM
[2]
  GI50: 615 nM
  TGI: 2690 nM
[3]
  GI50: 663 nM
  TGI: > 20000 nM
[4]
  GI50: 1500 nM
  TGI: 2980 nM
[5]
  GI50: 570 nM
  TGI: 7040 nM
[6]
  GI50: 60.7 nM
  TGI: 263 nM
[7]
  GI50: 1760 nM
  TGI: 4890 nM
[8]
  GI50: 594 nM
  TGI: 1490 nM
[9]
  GI50: 638 nM
  TGI: 6550 nM
[10]
  GI50: 1250 nM
  TGI: 2660 nM
[11]
  GI50: 196 nM
  TGI: > 100000 nM
[12]
  GI50: 1790 nM
  TGI: 5820 nM
[13]
  GI50: 1520 nM
  TGI: 3050 nM
[14]
  GI50: 1430 nM
  TGI: 3390 nM
[15]
  GI50: 1510 nM
  TGI: 3130 nM
[16]
  GI50: 1540 nM
  TGI: 3180 nM
[17]
  GI50: 623 nM
[18]
  GI50: 329 nM
  TGI: 1030 nM
[19]
  GI50: 394 nM
  TGI: 1600 nM
[20]
  GI50: 1330 nM
  TGI: 2710 nM
[21]
  GI50: 154 nM
  TGI: > 100000 nM
[22]
  GI50: 1370 nM
  TGI: 3250 nM
[23]
  GI50: 571 nM
  TGI: 1330 nM
[24]
  GI50: 2430 nM
  TGI: 6720 nM
[25]
  GI50: 1350 nM
  TGI: 3910 nM
[26]
  GI50: 108 nM
  TGI: 555 nM
[27]
  GI50: 2190 nM
  TGI: 4910 nM
[28]
  GI50: 159 nM
  TGI: 605 nM
[29]
  GI50: 460 nM
  TGI: 2210 nM
[30]
  GI50: 366 nM
  TGI: 1510 nM
[31]
  GI50: 1050 nM
  TGI: 2390 nM
[32]
  GI50: 845 nM
  TGI: 2240 nM
[33]
  GI50: 1400 nM
  TGI: 3210 nM
[34]
  GI50: 28.4 nM
  TGI: 221 nM
[35]
  GI50: 1830 nM
  TGI: 4100 nM
[36]
  GI50: 807 nM
  TGI: 2240 nM
[37]
  GI50: 466 nM
  TGI: 3160 nM
[38]
  GI50: 1540 nM
  TGI: 3060 nM
[39]
  GI50: 1860 nM
  TGI: 3880 nM
[40]
  GI50: 1320 nM
  TGI: 2990 nM
[41]
  GI50: 1450 nM
  TGI: 2900 nM
[42]
  GI50: 308 nM
  TGI: 951 nM
[43]
  GI50: 1270 nM
  TGI: 2740 nM
[44]
  GI50: 632 nM
  TGI: 1590 nM
[45]
  GI50: 1320 nM
  TGI: 2750 nM
[46]
  GI50: 1910 nM
  TGI: > 100000 nM
[47]
  GI50: 296 nM
  TGI: 836 nM
[48]
  GI50: 1440 nM
  TGI: 2810 nM
[49]
  GI50: 370 nM
  TGI: 1670 nM
[50]
  GI50: 649 nM
  TGI: 2070 nM
[51]
  GI50: 971 nM
  TGI: 3050 nM
[52]
  GI50: 822 nM
  TGI: 2350 nM
[53]
  GI50: 832 nM
  TGI: 2330 nM
[54]
  GI50: 228 nM
  TGI: 492 nM
[55]
  GI50: 520 nM
  TGI: 1490 nM
[56]
  GI50: 502 nM
  TGI: 991 nM
[57]
  GI50: 1740 nM
  TGI: 4920 nM
[58]
  GI50: 762 nM
  TGI: 2190 nM

## O=C1Nc2ccccc2/C1=c1\[nH]c(=O)/c(=C\c2ccc(OCc3ccccc3)cn2)[nH]c1=O
[1]
  TGI: 14000 nM
[2]
  TGI: > 100000 nM
[3]
  TGI: > 100000 nM
[4]
  TGI: > 100000 nM
[5]
  TGI: > 100000 nM
[6]
  TGI: 69400 nM
[7]
  TGI: > 100000 nM
[8]
  TGI: 91700 nM
[9]
  TGI: > 100000 nM
[10]
  TGI: > 100000 nM
[11]
  TGI: > 100000 nM
[12]
  TGI: 70100 nM
[14]
  TGI: 44800 nM
[15]
  TGI: > 100000 nM
[16]
  TGI: 55500 nM
[17]
  TGI: > 100000 nM
[18]
  TGI: > 100000 nM
[19]
  TGI: > 100000 nM
[20]
  TGI: > 100000 nM
[21]
  TGI: 75900 nM
[59]
  TGI: > 100000 nM
[22]
  TGI: 34900 nM
[23]
  TGI: > 100000 nM
[24]
  TGI: > 100000 nM
[25]
  TGI: > 100000 nM
[26]
  TGI: > 100000 nM
[27]
  TGI: > 100000 nM
[28]
  TGI: > 100000 nM
[29]
  TGI: > 100000 nM
[30]
  TGI: > 100000 nM
[31]
  TGI: 50100 nM
[32]
  TGI: > 100000 nM
[33]
  TGI: > 100000 nM
[34]
  TGI: > 100000 nM
[35]
  TGI: > 100000 nM
[36]
  TGI: > 100000 nM
[37]
  TGI: > 100000 nM
[38]
  TGI: > 100000 nM
[39]
  TGI: > 100000 nM
[40]
  TGI: > 100000 nM
[41]
  TGI: > 100000 nM
[42]
  TGI: > 100000 nM
[43]
  TGI: > 100000 nM
[44]
  TGI: > 100000 nM
[45]
  TGI: > 100000 nM
[46]
  TGI: > 100000 nM
[47]
  TGI: > 100000 nM
[48]
  TGI: 65700 nM
[49]
  TGI: 50500 nM
[50]
  TGI: > 100000 nM
[51]
  TGI: 848 nM
[52]
  TGI: > 100000 nM
[53]
  TGI: > 100000 nM
[54]
  TGI: > 100000 nM
[55]
  TGI: > 100000 nM
[56]
  TGI: > 100000 nM
[57]
  TGI: 77900 nM
[58]
  TGI: 76800 nM

— PubChem BioAssay (NCI)
